Test results reported in PMC10287566, “Signaling-specific inhibition of the CB1 receptor for cannabis use disorder: phase 1 and phase 2a randomized trials” (Nature Medicine, 2023).

Tests used:
[1] = 91-d repeated oral toxicity study in rats (GLP); type: in vivo; settings: both sexes, Sprague Dawley SPF, rat, in vivo, rats
[2] = test system: rats; assay: 91-d repeated oral toxicity study in rats (GLP); type: in vivo; settings: for change in blood urea level: male rats, week 14
[3] = test system: mice; assay: THC-induced increase in food intake (fasting-refeeding); type: in vivo
[4] = test system: volunteers with CUD; assay: Phase 2a study, cannabis self-administration; type: in vivo, human
Protocol: Participants, in groups of 3−4, completed two 5-d inpatient periods (first period ‘A’ and second period ‘B’) separated by a ≥ 14-d outpatient washout. During the two testing periods, participants received AEF0117 or matching placebo in counterbalanced order (two dosing sequences: AEF0117 first or placebo first). Participants took capsules at 9:00 each day and then smoked a controlled amount of cannabis (approximately 67 mg of THC smoked over 6 min) 3.5 h later (12:30). Ratings of the subjective effects of cannabis were done five times after cannabis administration (20 min, 40 min, 60 min, 90 min and 120 min after cannabis) using a VAS (0–100 mm). […] Participants were told that the cannabis strength could vary from day to day and between participants but that the cannabis they each received at 12:30 that day was the strength available for self-administration that day.
On study days 2–5, beginning at 14:30, participants were given the option to self-administer individual puffs of cannabis (up to six puffs per timepoint) every 2 h until 20:30 (maximum of 24 puffs per day). Fifteen minutes before each self-administration opportunity, participants indicated the number of puffs they chose to purchase ($2 per puff), and they would pay for it (using faux money that was then subtracted from their study stipend) before receiving their individual ashtray, cannabis cigarette and lighter.

[5] = test system: volunteers with CUD; assay: Phase 2a study, precipitated withdrawal, mood and sleep; type: in vivo, human
Protocol: In addition to general safety assessment of vital signs, clinical chemistry and AEs, symptoms of cannabis withdrawal were assessed by daily measures of food intake, body weight, sleep efficiency[23],[41],[42] and mood[22]. […]
We measured seven subscales of the 44-item VAS (‘Miserable’, ‘Anxious’, ‘Tired’, ‘Confused’, ‘Irritable’, ‘Social’ and ‘Bad effect’). […] Ratings were then done repeatedly (five times at 20, 40, 60, 90 and 120 min after cannabis).

[6] = test system: CYP and phase II enzymes; assay: Drug metabolic pathways (CYP and phase II enzymes), metabolites; type: in vitro ADME

With `COc1ccc(CO[C@H]2CC[C@@]3(C)C(=CC[C@H]4[C@@H]5CC[C@H](C(C)=O)[C@@]5(C)CC[C@@H]43)C2)cc1` [AEF0117, 3β-(4-methoxybenzyloxy)pregn-5-en-20-one] the NOAEL at 91 day ([1]; oral, 91-day, highest dose tested) was 65 mg/kg/day, the NOAEL at 91 d ([1]; 91-d repeated oral) was greater than 65 mg/kg/day and the “change in thymus weight, absolute value” ([2]; female rats, 65 mg/kg/day, Day 122, vs vehicle) was -17%. The “change in blood urea level” value ([2]; 20 mg) was “+13%”, the “change in blood urea level” value ([2]; 65 mg) was “+10%” and the “THC's effects on food intake” value [3] was “inhibited”. For the same molecule, the “% Inhibition” value ([3]; Increase in food intake) was 100%, the ID50 ([3]; Increase in food intake) was 15 µg/kg and the ID100 ([3]; Increase in food intake) was 50 µg/kg. The cannabis self-administration ([4]; 1 mg, global crossover analysis) was “reduced”, the “number of individuals choosing to self-administer cannabis” value ([4]; Treatment or Treatment x Dose, McNemar's test) was “no significant effect” and the “'Social' subscale rating after smoking cannabis, mean (SEM)” value (“'Social' subscale rating … (SEM)” for short) ([5]; 0.06 mg cohort, Day 1) was 66.9 (4.3). The “'Social' subscale, AEF0117-Placebo” value ([5]; 0.06 mg cohort, Day 1) was -5.9, the “'Social' subscale rating … (SEM)” value ([5]; 0.06 mg cohort, Day 2) was 67.4 (5.8) and the “'Social' subscale, AEF0117-Placebo” value ([5]; 0.06 mg cohort, Day 2) was -3.1. For the same molecule, the “'Social' subscale rating … (SEM)” value ([5]; 0.06 mg cohort, Day 3) was 64.4 (6.0), the “'Social' subscale, AEF0117-Placebo” value ([5]; 0.06 mg cohort, Day 3) was -6.6 and the “'Social' subscale rating … (SEM)” value ([5]; 0.06 mg cohort, Day 4) was 63.9 (5.6). The “'Social' subscale, AEF0117-Placebo” value ([5]; 0.06 mg cohort, Day 4) was -7.8, the “'Social' subscale rating … (SEM)” value ([5]; 0.06 mg cohort, Day 5) was 64.0 (5.8) and the “'Social' subscale, AEF0117-Placebo” value ([5]; 0.06 mg cohort, Day 5) was -6.0. The “'Social' subscale rating … (SEM)” value ([5]; 1 mg cohort, Day 1) was 71.9 (5.5), the “'Social' subscale, AEF0117-Placebo” value ([5]; 1 mg cohort, Day 1) was 3.9 and the “'Social' subscale rating … (SEM)” value ([5]; 1 mg cohort, Day 2) was 71.4 (5.2). The “'Social' subscale, AEF0117-Placebo” value ([5]; 1 mg cohort, Day 2) was 1.3, the “'Social' subscale rating … (SEM)” value ([5]; 1 mg cohort, Day 3) was 71.1 (5.6) and the “'Social' subscale, AEF0117-Placebo” value ([5]; 1 mg cohort, Day 3) was 0.1. For the same molecule, the “'Social' subscale rating … (SEM)” value ([5]; 1 mg cohort, Day 4) was 67.0 (5.9), the “'Social' subscale, AEF0117-Placebo” value ([5]; 1 mg cohort, Day 4) was -6.0 and the “'Social' subscale rating … (SEM)” value ([5]; 1 mg cohort, Day 5) was 69.5 (6.6). The “'Social' subscale, AEF0117-Placebo” value ([5]; 1 mg cohort, Day 5) was -1.6, the “difference between AEF0117 and placebo on the 'Social' subscale” value ([5]; 100-mm scale, after cannabis) was less than 8 mm and the “precipitation of cannabis withdrawal” value ([5]; Phase 2a, 0.06 and 1 mg) was “little to suggest that AEF0117 precipitated cannabis withdrawal”. For the same molecule, the “'Irritable' subscale, effect of treatment” value ([5]; Treatment x Day x Time, before cannabis) was “small but significant effect” and the “interaction with major drug metabolic pathways (CYP and phase II enzymes)” value [6] was “does not modify the activity of, nor is it notably metabolized by”.
